The values below come from US10718770B2, “Methods for screening compounds for treating or preventing a viral infection or a virus-related condition” (ABIVAX, priority 2015, dated 2020).

The subject of assay [1] is Rev-mediated export of viral RNA. Briefly: HIV reporter system (MS2-GFP) in HeLa cells: Rev-mediated export of viral RNA. The format is cell-based. As to conditions: in the absence of Rev, data not shown. The source says:
FIG. 8. Compound 1 influences Rev-mediated HIV RNA biogenesis and export. A) Schematic representation of the HIV-1 reporter gene B) Visualization of GFP-MS2-Bound RNA in HeLa cells expressing tat, MS2-GFP and HIV-reporter transcripts in non transfected or transfected cells with Rev. Rev-transfected cells were untreated (DMSO) or treated with Compound 1. Arrow indicates transcription site. C) Quantitation of images corresponding to untreated (DMSO) or treated (Compound 1) in (B), in terms of: total GFP (upper panel) expressed in RFU or Relative Fluorescence Units; in the nucleoplasm (middle panel) expressed in Number of Foci in Rev-transfected cells; or at the start site (lower panel) expressed as a percentage of nuclei with a starting transcription point. Box-plots show the average GFP intensity (foci numbers or starting transcription point numbers) of Rev-transfected HeLa cells for each condition. Whiskers correspond to the minimum and maximum, boxes, to the 25-75 percentiles and the band inside the box, to the median. […]
Cells plated on cover slips were fixed for 10 min in 3.7% formaldehyde (in PBS) followed by a 2-min permeabilization with 0.1% Triton X-100 (in PBS) and incubation in PBS containing 0.1% bovine serum albumin. […] Cells were washed in PBS mounted with DAKO mounting medium and observed under the fluorescence microscope. […]

Another assay deals with HIV-1 strain YU2. Briefly: HIV-1 p24 production in infected monocyte derived-macrophages. Type of assay: cell-based. The note with it: Human immunodeficiency virus 1, Primary macrophage, read-out: inhibition levels of virus replication (p24). The source says:
FIG. 5. Potency of indole derivatives to inhibit HIV-1 production in PBMC- and macrophages-infected cells. A) HIV-1 strain Ada-MR5 was used to infect triplicate of activated PBMCs from different donors (stimulated for two days with PHA and IL2) in the absence or presence of increasing concentrations of Compound 1. Supernatant was harvested 6 days post-infection (pi) and viral capsid protein p24 antigen was quantitated using standard ELISA protocol. Each point represents 6 donors. B) HIV-1 strain YU2 was used to infect triplicate of monocyte derived-macrophages from different donors in the absence or presence of increasing concentrations of Compound 1. Supernatant was harvested 8 days pi and viral capsid protein p24 antigen was quantitated using standard ELISA protocol. Each point represents 8 donors.
To generate monocyte derived macrophages (MDMs), monocytes were isolated using CD14 microbeads (catalog no. 130-050-201; Miltenyi) and cultured in X-VIVO10 medium (Lonza) supplemented with GM-CSF 1000 U/ml and M-CSF 100 ng/ml for 6 days. Monocytes were seeded at a cell count of 50′000 cells per well in a 96 well plate. After 6 days medium was replaced with X-VIVO10 w/o Cytokines. […]
Cells were treated with 0.01 μM up to 30 μM and p24 antigen levels were monitored in culture supernatant over a 12 day period. […]

A word on the inhibition: it is the relative decrease from the control value, in per cent.

Structures are written as SMILES. Bounds are passed on as bounds.

For the molecule `FC(F)(F)Oc1ccc(Nc2ccc3cccc(Cl)c3n2)cc1` [Compound 1, 8-chloro-N-(4-(trifluoromethoxy)phenyl)quinolin-2-amine], in assay [1], the “effect on reporter cells” value is “no effect”. For the same molecule, the inhibition at 0.1 µM in the assay on HIV-1 strain YU2 was not above 90%.
